Data published in patent publication US20200291018A1, “TAM KINASE INHIBITORS” (SYROS PHARMACEUTICALS, INC., priority 2017, published 2020).

What was measured:
AXL = molecular target: T1, AXL (Homo sapiens, UniProt P30530); experiment: TR-FRET kinase activity assay, AXL; type: biochemical; details: ATP at Km, 60 minutes
T1 sequence (P30530 26-894): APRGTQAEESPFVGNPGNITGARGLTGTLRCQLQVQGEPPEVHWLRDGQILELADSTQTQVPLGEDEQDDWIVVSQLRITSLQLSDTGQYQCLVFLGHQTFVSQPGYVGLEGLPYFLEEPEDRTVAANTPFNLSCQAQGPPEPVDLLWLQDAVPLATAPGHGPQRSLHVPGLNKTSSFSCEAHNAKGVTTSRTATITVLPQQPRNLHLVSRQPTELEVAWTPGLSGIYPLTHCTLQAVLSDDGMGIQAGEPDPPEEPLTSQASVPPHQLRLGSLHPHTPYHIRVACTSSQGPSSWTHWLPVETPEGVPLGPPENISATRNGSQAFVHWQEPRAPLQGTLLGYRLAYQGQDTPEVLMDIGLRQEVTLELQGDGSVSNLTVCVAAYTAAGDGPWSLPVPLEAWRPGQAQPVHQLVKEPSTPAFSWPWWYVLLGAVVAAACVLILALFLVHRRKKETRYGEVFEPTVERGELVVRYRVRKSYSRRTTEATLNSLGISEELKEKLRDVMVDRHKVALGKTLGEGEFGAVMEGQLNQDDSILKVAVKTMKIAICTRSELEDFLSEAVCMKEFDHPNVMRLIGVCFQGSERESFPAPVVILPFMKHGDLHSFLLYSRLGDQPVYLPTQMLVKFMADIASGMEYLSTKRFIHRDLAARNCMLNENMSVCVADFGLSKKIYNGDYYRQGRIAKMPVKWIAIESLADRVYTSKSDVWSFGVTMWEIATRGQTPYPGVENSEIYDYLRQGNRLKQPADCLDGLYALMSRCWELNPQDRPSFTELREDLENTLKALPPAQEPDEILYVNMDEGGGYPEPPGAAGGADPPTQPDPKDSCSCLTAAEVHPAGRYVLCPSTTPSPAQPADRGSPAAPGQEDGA
Description: (§1) IC50 values for compound inhibition of AXL, FLT3, MERTK and TYRO3 activity were determined using a TR-FRET activity assay. A peptide substrate with a fluorescent label is phosphorylated on a tyrosine by each enzyme, where the now phosphorylated product is bound by a Europium-labeled antibody specific to that phosphorylation site. The proximity between the antibody and the substrate gives a signal known as TR-FRET. As the enzyme is inhibited by compound, less phosphorylated peptide product is made, causing a decrease in overall signal.
(§2) Activity assays were performed in a 384-well, small volume, black microplates in an active enzyme volume of 10 uL and final developed volume of 20 uL. Final assay conditions are 50 mM HEPES pH 7.5, 10 mM MgCl2, 1 mM EGTA, 0.01% Brij 35 and 1 mM DTT, all at RT. Enzyme, substrate-labeled peptide and compound are mixed, and then the reaction is initiated with the addition of ATP at Km concentration for each enzyme. The reaction is allowed to run 60 minutes and then quenched with a 12.5 mM EDTA (ethylenediamine tetraacetic acid) solution. The plate is then developed with the addition of Europium-labeled antibody for a final volume of 20 uL and is then incubated for 30 minutes in darkness. Plates are read in a PHERASTAR® plate reader. Data are analyzed in GraphPad PRISM.

FLT3 = molecular target: T2, FLT3 (Homo sapiens, UniProt P36888); experiment: TR-FRET kinase activity assay, FLT3; type: biochemical; details: ATP at Km, 60 minutes
T2 sequence (P36888 27-993): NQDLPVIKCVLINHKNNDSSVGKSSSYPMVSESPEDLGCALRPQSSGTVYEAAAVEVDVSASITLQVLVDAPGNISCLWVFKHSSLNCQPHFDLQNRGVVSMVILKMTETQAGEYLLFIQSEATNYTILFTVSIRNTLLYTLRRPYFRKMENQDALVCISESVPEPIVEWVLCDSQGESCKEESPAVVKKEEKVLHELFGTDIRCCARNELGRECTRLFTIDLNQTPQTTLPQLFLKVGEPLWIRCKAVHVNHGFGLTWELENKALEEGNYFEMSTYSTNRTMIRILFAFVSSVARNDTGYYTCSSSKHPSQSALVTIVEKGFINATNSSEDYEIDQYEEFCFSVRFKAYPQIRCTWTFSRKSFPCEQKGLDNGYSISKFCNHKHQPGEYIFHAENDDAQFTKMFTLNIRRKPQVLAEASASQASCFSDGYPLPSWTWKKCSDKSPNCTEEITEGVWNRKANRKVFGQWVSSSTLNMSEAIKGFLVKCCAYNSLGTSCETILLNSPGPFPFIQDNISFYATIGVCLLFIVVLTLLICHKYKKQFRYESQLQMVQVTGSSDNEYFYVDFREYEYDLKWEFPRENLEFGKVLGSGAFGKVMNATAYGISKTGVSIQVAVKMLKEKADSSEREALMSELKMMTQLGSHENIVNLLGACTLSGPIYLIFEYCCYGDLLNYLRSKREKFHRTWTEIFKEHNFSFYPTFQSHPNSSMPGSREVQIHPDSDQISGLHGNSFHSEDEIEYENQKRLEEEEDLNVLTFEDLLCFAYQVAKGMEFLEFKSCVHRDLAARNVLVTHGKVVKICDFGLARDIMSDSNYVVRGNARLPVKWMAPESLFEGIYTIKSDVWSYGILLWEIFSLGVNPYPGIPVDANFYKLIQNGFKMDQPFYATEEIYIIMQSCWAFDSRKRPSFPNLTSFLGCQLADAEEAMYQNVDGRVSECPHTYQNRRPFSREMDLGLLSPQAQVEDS
Description: as §1, §2

IC50 (AXL) | IC50 (FLT3) | SMILES
100 to 1000 nM | 100 to 1000 nM | O[C@H]1CC[C@H](c2cnc(OC3CCNCC3)c3cnc(N[C@@H]4CCCOC4)nc32)CC1 [Compound 232]
≤ 100 nM | 100 to 1000 nM | CC[C@H](C)Nc1ncc2c(OC3CCN(S(C)(=O)=O)CC3)ncc([C@H]3CC[C@H](O)CC3)c2n1 [Compound 233]
100 to 1000 nM | 1000 to 10000 nM | CC[C@H](C)Nc1ncc2c(=O)n(C3CCN(S(C)(=O)=O)CC3)cc([C@H]3CC[C@H](O)CC3)c2n1 [Compound 234]
≤ 100 nM | 100 to 1000 nM | CCOc1ncc([C@H]2CC[C@H](O)CC2)c2nc(N[C@@H](C)CC)ncc12 [Compound 235]
100 to 1000 nM | 100 to 1000 nM | CCOc1ncc(CC2CCNCC2)c2nc(N[C@@H](C)CC)ncc12 [Compound 236]
1000 to 10000 nM | 1000 to 10000 nM | CC[C@H](C)Nc1ncc2c(OC3C[C@H]4CC[C@@H](C3)O4)ncc([C@H]3CC[C@H](O)CC3)c2n1 (stereo partly drawn) [Compound 237]
100 to 1000 nM | 100 to 1000 nM | CC[C@H](C)Nc1ncc2c(NC34CCC(O)(CC3)CC4)ncc([C@H]3CC[C@H](O)CC3)c2n1 [Compound 238]
100 to 1000 nM | 1000 to 10000 nM | CC[C@H](C)Nc1ncc2c(OC3CCN(C)CC3)ncc([C@H]3CC[C@H](O)CC3)c2n1 [Compound 239]
1000 to 10000 nM | 1000 to 10000 nM | CC[C@H](C)Nc1ncc2c(C3CCN(C)CC3)ncc([C@H]3CC[C@H](O)CC3)c2n1 [Compound 240]
1000 to 10000 nM | 1000 to 10000 nM | CC[C@H](C)Nc1ncc2c(OC(CO)CO)ncc([C@H]3CC[C@H](O)CC3)c2n1 [Compound 241]
1000 to 10000 nM | 1000 to 10000 nM | COC[C@H](C)Nc1ncc2c(OC3CCOCC3)ncc(C3=CCC4(CC3)OCCO4)c2n1 [Compound 242]
1000 to 10000 nM | 1000 to 10000 nM | COC[C@H](C)Nc1ncc2c(OC3CCOCC3)ncc(C3CCC4(CC3)OCCO4)c2n1 [Compound 243]
100 to 1000 nM | 1000 to 10000 nM | CCc1ncc([C@H]2CC[C@H](O)CC2)c2nc(N[C@@H](C)CC)ncc12 [Compound 244]
100 to 1000 nM | 100 to 1000 nM | CC[C@H](C)Nc1ncc2c(OCC(F)(F)F)ncc([C@H]3CC[C@H](O)CC3)c2n1 [Compound 245]
100 to 1000 nM | 1000 to 10000 nM | CC[C@H](C)Nc1ncc2c(OC3CC(C)(C)NC(C)(C)C3)ncc([C@H]3CC[C@H](O)CC3)c2n1 [Compound 246]
1000 to 10000 nM | 1000 to 10000 nM | CC[C@H](C)Nc1ncc2c(OC3C[C@@H](C)O[C@@H](C)C3)ncc([C@H]3CC[C@H](O)CC3)c2n1 (stereo partly drawn) [Compound 247]
100 to 1000 nM | 1000 to 10000 nM | CC[C@H](C)Nc1ncc2c(=O)n(CC34CCC(N)(CC3)CC4)cc([C@H]3CC[C@H](O)CC3)c2n1 [Compound 251]
1000 to 10000 nM | 1000 to 10000 nM | CCOc1ncc(CC2CCN(C)CC2)c2nc(N[C@@H](C)CC)ncc12 [Compound 253]
1000 to 10000 nM | 1000 to 10000 nM | CCOc1ncc(CC2CCN(C(=O)OC(C)(C)C)CC2)c2nc(N[C@@H](C)CC)ncc12 [Compound 254]
≤ 100 nM | 1000 to 10000 nM | CC[C@H](C)Nc1ncc2c(C)ncc([C@H]3CC[C@H](O)CC3)c2n1 [Compound 255]

IC50 (AXL) | IC50 (FLT3) | SMILES
1000 to 10000 nM | 1000 to 10000 nM | CC[C@H](C)Nc1ncc2c(OCC34CCC(O)(CC3)CC4)ncc([C@H]3CC[C@H](O)CC3)c2n1 [Compound 256]
≤ 100 nM | 1000 to 10000 nM | CC[C@H](C)Nc1ncc2c(=O)n(CC34CCC(O)(CC3)CC4)cc([C@H]3CC[C@H](O)CC3)c2n1 [Compound 257]
≤ 100 nM | 1000 to 10000 nM | COC[C@H](C)Nc1ncc2c(OC3CC(C)(C)N(C)C(C)(C)C3)ncc([C@H]3CC[C@H](O)CC3)c2n1 [Compound 259]
100 to 1000 nM | 1000 to 10000 nM | COC[C@H](C)Nc1ncc2c(O[C@H]3CC[C@H](O)CC3)ncc([C@H]3CC[C@H](O)CC3)c2n1 [Compound 260]
100 to 1000 nM | 100 to 1000 nM | CC[C@H](C)Nc1ncc2c(O[C@H]3CC[C@H](C(C)(C)O)CC3)ncc([C@H]3CC[C@H](O)CC3)c2n1 [Compound 261]
100 to 1000 nM | 100 to 1000 nM | O[C@H]1CC[C@H](c2cnc(OC3CCNCC3)c3cnc(Nc4ccccc4F)nc32)CC1 [Compound 262]
100 to 1000 nM | 1000 to 10000 nM | CC[C@H](C)Nc1ncc2c(=O)n(C[C@@H]3COCCN3C)cc([C@H]3CC[C@H](O)CC3)c2n1 [Compound 263]
≤ 100 nM | 1000 to 10000 nM | CC[C@H](C)Nc1ncc2c(=O)n(CC34CCC(N(C)C)(CC3)CC4)cc([C@H]3CC[C@H](O)CC3)c2n1 [Compound 264]
1000 to 10000 nM | 1000 to 10000 nM | CC[C@H](C)Nc1ncc2c(=O)n(C[C@H]3COCCN3C)cc([C@H]3CC[C@H](O)CC3)c2n1 [Compound 265]
100 to 1000 nM | 1000 to 10000 nM | CC[C@H](C)Nc1ncc2c(=O)n([C@H]3CC[C@H](N(C)C)C3)cc([C@H]3CC[C@H](O)CC3)c2n1 [Compound 266]
≤ 100 nM | 100 to 1000 nM | CC[C@H](C)Nc1ncc2c(O[C@H]3CC[C@H](N(C)C)C3)ncc([C@H]3CC[C@H](O)CC3)c2n1 [Compound 267]
100 to 1000 nM | 1000 to 10000 nM | CC(C)(C)Nc1ncc2c(OC3CCNCC3)ncc([C@H]3CC[C@H](O)CC3)c2n1 [Compound 268]
≤ 100 nM | ≤ 100 nM | O[C@H]1CC[C@H](c2cnc(OC3CCNCC3)c3cnc(Nc4ccc(F)cc4)nc32)CC1 [Compound 269]
≤ 100 nM | ≤ 100 nM | O[C@H]1CC[C@H](c2cnc(OC3CCNCC3)c3cnc(Nc4cccc(F)c4)nc32)CC1 [Compound 270]
1000 to 10000 nM | 1000 to 10000 nM | CC[C@H](C)Nc1ncc2c(=O)n(-c3ccc(N)cc3)cc([C@H]3CC[C@H](O)CC3)c2n1 [Compound 271]
≤ 100 nM | 100 to 1000 nM | COC(=O)c1ccc(Nc2ncc3c(OC4CCNCC4)ncc([C@H]4CC[C@H](O)CC4)c3n2)cc1 [Compound 272]
100 to 1000 nM | 1000 to 10000 nM | CCOc1ncc([C@H]2CC[C@H](O)CC2)c2nc(N[C@@H](C)COC)ncc12 [Compound 273]
100 to 1000 nM | 1000 to 10000 nM | CC(C)Nc1ncc2c(OC3CCOCC3)ncc(-c3cccc(CC#N)c3)c2n1 [Compound 274]
1000 to 10000 nM | 1000 to 10000 nM | CC[C@H](C)Nc1ncc2c(OC3C[C@@H](C)O[C@@H](C)C3)ncc([C@H]3CC[C@H](O)CC3)c2n1 (stereo partly drawn) [Compound 275]
